One data set has as its system ODN. The data set is described as follows: Complex formation between CBS and ODN (agarose gel electrophoresis). Type of data set: binding. The settings on record: 3% agarose gel, RPMI, excess positive charge (+/−) 2/1 and higher. The source says: The oligonucleotidic sequences used were antisense sequences (complementary) directed against HIV RNA. The length varied from 15 to 28 bases, being of phosphorothioate nature. The specific ODN used and their sequences are shown below in Table 1.
Several of the ODN were used fluorescent at the 5′ end. This is indicated by adding the letter F to its notation. Thus, “GF” makes reference to the fluorescent anti-gag ODN at end 5′, whilst “RF” makes reference to the anti-Rev ODN fluorescent at end 5′.
Different agarose concentrations were used to show the migration of the ODN and the dendriplexes, bearing in mind the small size of the ODN used. Finally, a 3% agarose concentration in TAE 1× was chosen as the best. The migration of non-fluorescent ODNs was compared with fluorescent ones, both migrating at the same height but the latter increasing the signal perceived considerably. Using them, it thus avoided the isotopic labelling of the ODN. A double well was manufactured to prepare these gels, to permit load volumes of 60 μl, of which 50 μl was mixture volume of the samples in RPMI and 10 μl load buffer with glycerol. As size marker, a ladder of 100 base pairs was used (Gibco BRL®).
For the complex formations in all the tests performed, both on gels and on cells the ratio between the number of positive and negative charges in said complex was taken. As published by different authors in studies with PAMAM dendrimers, it is necessary that the complex formed has an excess positive charge to facilitate its binding to the cell membrane glycoproteins, negatively charged, thus starting the endocytosis process. Likewise, an excess of positive charge is added to ensure the formation of the dendrimer-DNA complex. Therefore, the complexes between the CBS dendrimers and the different nucleic acids were formed in excess number of positive charges (provided by the CBS) compared with negative charges (provided by the ODN). Nevertheless, different charge ratios were tested, making the calculations based in the number of dendrimer charges (fixed) and the number of negative charges of the ODN (also fixed). The 2/1 ratio of positive/negative charges was fixed as sufficient in all dendrimers to form the complexes with a total positive charge, although in some experiments a balance was provided of an equal number of negative charges as positive charges or excess negative charges.
In all the tests, a complex formation volume of 60 μl was used, using phenol red without RPMI serum as support medium.
Tests of complex formation were used with the dendrimers of the invention IM8, ClNH4, NN, Phe and IM16.
The synthesis process of the CBS used in this work begins from an initial nucleus of common structure, which is ended functionalizing in the periphery by the use of different functional groups, which are those which provide the positive charge to the dendrimer and determine the differences between themselves, the dendrimeric nucleus being of apolar nature. Since some of the bonds of the functional groups used to the dendrimeric nucleus could be unstable in aqueous solution, tests were performed to determine if the DNA retention in agarose gels and, therefore, the complex formation between the CBS and the DNA could be due to the total dendrimer structure being conserved or in contrast, the terminal functional groups came away from the moiety of the dendrimeric core which are responsible for the DNA retention. For this, gels were used in which complexes were formed between the ODNs and the integral CBS and those formed supposedly between the ODNs and the terminal functional groups with which the carbosilane skeleton had functionalized, in this case quaternized dimethylethanolamine. As has previously been commented, those positively charged molecules, which are bound to the dendrimer as terminal functional groups, are those which give the dendrimer its charge. As control, the mixtures of ODN-dendrimers, ODN-monomers and ODN alone were compared. […]

The subject of the next data set is ODN PPT. The data set is described as follows: Stability of the dendriplexes at different pHs. To be noted: dendriplexes with PPT, 2/1 charge ratio; for stability of dendrimer-ODN complex at the pHs tested: pHs 2.8, 2.7, 4.7, 5.7, 6.4, 7.4, 8. Type of data set: physicochemical. The procedure:
Stability studies were carried out on the complexes a different pHs, to determine how the changes in pH would affect the complex, since there are different anatomic, tissue or cell localizations in which the pH acidifies or alkalinifies. Examples are stomach ambient acid, the alkali of the pancreatic secretions of the small intestine, or at a cellular level, the endosome-lisosome behaviour, where it changes from a physiological pH (7.35-7.45) to an acid pH around 4. It is interesting to know, therefore, in what pH range the DNA complex could be maintained with the different CBS used. The complexes were formed following the habitual process and volumes were added in excess of different solutions at different pHs. Therefore, for each one of dendrimers Phe, ClNH4, NN, IM8 and IM16, according to Example 31, 7 solutions were prepared of dendriplexes formed with PPT, in a 2/1 charge ratio and with the following pHs: […]; 2.7; 4.7; 5.7; 6.4; 7.4; 8: The results produced are shown in the electrophoresis gels which appear in FIG. 4, wherein the height of the normal ODN migration band is shown with arrows in the lower part of the gels. The samples were loaded from left to right following an increasing pH order. No sample was formed in the wells indicated with an X.

In another data set the test system is PBMC. The data set is described as follows: Flow cytometry test (size and complexity; live cells vs apoptosis-necrosis). Type of data set: cell-based, human. The settings on record: 72 hours, same concentrations as Trypan Blue test. The procedure: The evaluation time on this occasion was 72 hours. The toxicity was evaluated on PBMC, produced in the manner described in Example 38. […] The ODN used was PPT, in the following way: • [ODN PPT] in the complex with the CBS: 2.57 (0.88 μM) • [ODN PPT] in the complex with SF: 0.34 μM • [ODN PPT] in the complex with G4: 1 μM […] The cells were either incubated with said complexes, a mixture of equal volume which contained ODN without CBS, a mixture which contained dendrimer alone, or with a mixture which contained only RPMI+complete medium which was used as negative control. The cells and/or the supernatant were then collected to be analysed by flow cytometry, confocal microscopy or cell DNA extraction. The percentages of cells with size and complexity corresponding to cells in apoptosis-necrosis were compared with the live cells. For this, the size (FW) and the complexity (SD) was evaluated by flow cytometry. To do this, a region was drawn around the cells with FW and SD corresponding to cells in apoptosis-necrosis and another around the cells with FW and SD corresponding to live cells. The percentages of cells present in each slide were compared. The graphics produced are shown in FIG. 15, wherein the X-axis represents the size (FW) and the Y-axis the complexity (SD). […] The cloud of dark cells corresponds to cells in apoptosis necrosis. The live cells are represented in grey.
On the technique in general: Flow cytometry measures light scatter and fluorescence of single cells or particles in a stream.

“Also recorded” adds a separate entry of the source.

On to `C[Si](C)(CCCN)CCC[Si](C)(CCC[Si](C)(C)CCCN)CCC[Si](CCC[Si](C)(CCC[Si](C)(C)CCCN)CCC[Si](C)(C)CCCN)(CCC[Si](C)(CCC[Si](C)(C)CCCN)CCC[Si](C)(C)CCCN)CCC[Si](C)(CCC[Si](C)(C)CCCN)CCC[Si](C)(C)CCCN.Cl.Cl.Cl.Cl.Cl.Cl.Cl.Cl` [ClNH4, 2G-[Si(CH2)3NH3^+Cl^−]8], for which, in the data set with ODN, the “complex formation with ODN (retention of DNA migration in gel)” value (“complex formation with ODN” for short) is “capable of retaining the DNA also with all the charge ratios evaluated”. The “stability of dendrimer-ODN complex at the pHs tested” value with ODN PPT is “stable at all pHs tested”. In the data set on PBMC, the “Apoptosis-necrosis (%)” value was determined as 26% and the “Live cells (%)” value is 71%.

As to `C[N+](C)(C)CCO[Si](C)(C)CCC[Si](C)(CCC[Si](CCC[Si](C)(CCC[Si](C)(C)OCC[N+](C)(C)C)CCC[Si](C)(C)OCC[N+](C)(C)C)(CCC[Si](C)(CCC[Si](C)(C)OCC[N+](C)(C)C)CCC[Si](C)(C)OCC[N+](C)(C)C)CCC[Si](C)(CCC[Si](C)(C)OCC[N+](C)(C)C)CCC[Si](C)(C)OCC[N+](C)(C)C)CCC[Si](C)(C)OCC[N+](C)(C)C.[I-].[I-].[I-].[I-].[I-].[I-].[I-].[I-]` [IM8, 2G-[Si(OCH2CH2NMe3^+I^−)]8], the “complex formation with ODN” value in the data set on ODN was “capable of retaining the DNA; also recorded: capable of retaining the migration of all the ODN”. In the data set on ODN PPT, the “pH at which the dendrimer-ODN complex is labile / dissociated” value was less than 4.7. In the data set with PBMC, the “Apoptosis-necrosis (%)” value was 36% and the “Live cells (%)” value was 59%.

For `C[N+](C)(C)CCO[Si](C)(CCC[Si](C)(CCC[Si](CCC[Si](C)(CCC[Si](C)(OCC[N+](C)(C)C)OCC[N+](C)(C)C)CCC[Si](C)(OCC[N+](C)(C)C)OCC[N+](C)(C)C)(CCC[Si](C)(CCC[Si](C)(OCC[N+](C)(C)C)OCC[N+](C)(C)C)CCC[Si](C)(OCC[N+](C)(C)C)OCC[N+](C)(C)C)CCC[Si](C)(CCC[Si](C)(OCC[N+](C)(C)C)OCC[N+](C)(C)C)CCC[Si](C)(OCC[N+](C)(C)C)OCC[N+](C)(C)C)CCC[Si](C)(OCC[N+](C)(C)C)OCC[N+](C)(C)C)OCC[N+](C)(C)C.[I-].[I-].[I-].[I-].[I-].[I-].[I-].[I-].[I-].[I-].[I-].[I-].[I-].[I-].[I-].[I-]` [IM16, 2G-[Si(OCH2CH2NMe3^+I^−)2]8], the “complex formation with ODN” value in the data set on ODN was “capable of retaining the DNA”. Also, in the data set on PBMC, the “Apoptosis-necrosis (%)” value came to 28% and the “Live cells (%)” value was determined as 67%.

With `CN(CCO[Si](C)(C)CCC[Si](C)(CCC[Si](CCC[Si](C)(CCC[Si](C)(C)OCCN(C)CC[N+](C)(C)C)CCC[Si](C)(C)OCCN(C)CC[N+](C)(C)C)(CCC[Si](C)(CCC[Si](C)(C)OCCN(C)CC[N+](C)(C)C)CCC[Si](C)(C)OCCN(C)CC[N+](C)(C)C)CCC[Si](C)(CCC[Si](C)(C)OCCN(C)CC[N+](C)(C)C)CCC[Si](C)(C)OCCN(C)CC[N+](C)(C)C)CCC[Si](C)(C)OCCN(C)CC[N+](C)(C)C)CC[N+](C)(C)C.[I-].[I-].[I-].[I-].[I-].[I-].[I-].[I-]` [NN, 2G-[Si(O(CH2)2N(Me)(CH2)2NMe3^+I^−)]8], the “complex formation with ODN” value in the data set on ODN is given as “capable of forming complexes with the ODN”. Besides, in the data set on PBMC, the “Apoptosis-necrosis (%)” value is listed as 24% and the “Live cells (%)” value stood at 70%.

In the case of `C[N+](C)(C)CCOc1cc(CO[Si](C)(C)CCC[Si](C)(CCC[Si](CCC[Si](C)(CCC[Si](C)(C)OCc2cc(OCC[N+](C)(C)C)cc(OCC[N+](C)(C)C)c2)CCC[Si](C)(C)OCc2cc(OCC[N+](C)(C)C)cc(OCC[N+](C)(C)C)c2)(CCC[Si](C)(CCC[Si](C)(C)OCc2cc(OCC[N+](C)(C)C)cc(OCC[N+](C)(C)C)c2)CCC[Si](C)(C)OCc2cc(OCC[N+](C)(C)C)cc(OCC[N+](C)(C)C)c2)CCC[Si](C)(CCC[Si](C)(C)OCc2cc(OCC[N+](C)(C)C)cc(OCC[N+](C)(C)C)c2)CCC[Si](C)(C)OCc2cc(OCC[N+](C)(C)C)cc(OCC[N+](C)(C)C)c2)CCC[Si](C)(C)OCc2cc(OCC[N+](C)(C)C)cc(OCC[N+](C)(C)C)c2)cc(OCC[N+](C)(C)C)c1.[I-].[I-].[I-].[I-].[I-].[I-].[I-].[I-].[I-].[I-].[I-].[I-].[I-].[I-].[I-].[I-]` [Phe, 2G-[Si(OCH2—(C6H3)-3,5-(OCH2CH2NMe3^+I^−)2)]8], the “complex formation with ODN” value in the data set on ODN is listed as “capable of forming complexes with the ODN”. Besides, the “stability of dendrimer-ODN complex at the pHs tested” value in the data set with ODN PPT is listed as “stable at all pHs tested”. Further, in the data set on PBMC, the “Apoptosis-necrosis (%)” value is 33% and the “Live cells (%)” value was determined as 61%.

(Values after US8603493B2, “Carbosilane dendrimers, preparation method thereof and use of same” (Dendrico, S.L., priority 2005, dated 2013).)
